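The compound was tested at five concentrations on cells cultured in 96-well plates, with a 48-hour exposure period. GI50 is the concentration that inhibits growth by half. At the TGI there is no net growth.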
Legend:
Assay in all cases: NCI anticancer screen, dose series, 48 h
A498 renal = tested on: A498 renal
HCC-2998 colon = tested on: HCC-2998 colon
K-562 leukemia = tested on: K-562 leukemia
OVCAR-3 ovarian = tested on: OVCAR-3 ovarian
RXF 393 renal = tested on: RXF 393 renal
SK-MEL-2 melanoma = tested on: SK-MEL-2 melanoma
SK-MEL-5 melanoma = tested on: SK-MEL-5 melanoma
SW-620 colon = tested on: SW-620 colon
OVCAR-5 ovarian = tested on: OVCAR-5 ovarian
NCI-H226 lung = tested on: NCI-H226 lung

Compound	GI50 (A498 renal) [µM]	TGI (A498 renal) [µM]	GI50 (HCC-2998 colon) [µM]	TGI (HCC-2998 colon) [µM]	GI50 (K-562 leukemia) [µM]	TGI (K-562 leukemia) [µM]	GI50 (OVCAR-3 ovarian) [µM]	TGI (OVCAR-3 ovarian) [µM]	GI50 (RXF 393 renal) [µM]	TGI (RXF 393 renal) [µM]	GI50 (SK-MEL-2 melanoma) [µM]	TGI (SK-MEL-2 melanoma) [µM]	GI50 (SK-MEL-5 melanoma) [µM]	TGI (SK-MEL-5 melanoma) [µM]	GI50 (SW-620 colon) [µM]	TGI (SW-620 colon) [µM]	TGI (OVCAR-5 ovarian) [µM]	GI50 (NCI-H226 lung) [µM]	TGI (NCI-H226 lung) [µM]	GI50 (OVCAR-5 ovarian) [µM]
Cc1nc(N)sc1-c1ccnc(Nc2ccc(N3CCOCC3)cc2)n1	0.731	2.07	11.8	> 100	1.6	> 100	7.37	> 100	0.938	2.78	5.16	59.3	5.05	> 100	1.41	24.9				
NC(N)=NCCN=C(N)N		> 100		> 100		> 100		> 100		> 100		> 100		> 100		> 100	> 100			
O=[N+]([O-])c1ccc(C=C2C(Cl)=C(Cl)C(Cl)=C2Cl)cc1	5.13	26.6			3.68	> 100	1.83	3.46	1.81	3.39	2.77	8.89	21.8	> 100			> 100	4.31	23	3.3
Cc1ccc2c(n1)C(=O)c1[nH]c3ccccc3c1C2=O	1.38	2.76	1.88	6.37	3.14	> 100	1.26	5.72	2.72	55.4	3.36	> 100	0.212	0.583	2.97	> 100	4.54	1.36	3.65	2.11
NC(Cc1cccc([N+](=O)[O-])c1)C(=O)O (stereo not drawn)		> 100		> 100		> 100		> 100		> 100		> 100		> 100		> 100	> 100		> 100	
COc1ccc(C2CC(c3cccc(Nc4ccncc4)c3)=NN2c2cc(Cl)cc(Cl)c2)cc1 (stereo not drawn)	3.06	18	1.47	2.85	2.41	5.57	1.81	3.35			2.36	5.02	1.81	3.28	1.71	3.26	5.19	10.7	30.7	2.23
CCC[CH2][Ge]([CH2]CCC)([CH2]CCC)[O]C(=O)CC(=O)c1ccccc1			1.3	6.16	0.346	14.7	2.63	17.6	0.728	3.65	2.22	17.9			0.825	12.6	14.9	3.23	17.2	2.17
NCCCNc1nc2ccccc2c2c(=O)c3cc(OC(F)(F)F)ccc3sc12			1.71	3.25							1.93	3.72	1.83	3.36			3.07			1.64
NNC(N)Nc1ccccc1 (stereo not drawn)		> 100		> 100		> 100		> 100		> 100		> 100		> 100		> 100	> 100		> 100	
NC(CCCCP(=O)(O)O)C(=O)O (stereo not drawn)				> 100		> 100		> 100		> 100		> 100		> 100		> 100	> 100			
CC1CC=CC(O)C1 (stereo not drawn)		> 100		> 100		> 100		> 100		> 100		> 100		> 100		> 100	> 100		> 100	
O=C(OC(=O)n1ccc2ccccc21)n1ccc2ccccc21		> 100		> 100		> 100		> 100		> 100		> 100		> 100		> 100	> 100		> 100	
O=NN(CCCl)C(=O)NC1CCSc2ccccc21 (stereo not drawn)		> 100		> 100		> 100		> 100		> 100		> 100		> 100		> 100	> 100		> 100	
C[C@]12C=CC(=O)C=C1CC[C@H]1[C@@H]3C[C@@H](O)[C@](O)(C(=O)CO)[C@@]3(C)C[C@H](O)[C@@]12F		> 100		> 100		> 100		> 100		> 100		> 100		> 100		> 100	> 100		> 100	
COc1ccccc1C1C(C(=O)O)=C(CO)Oc2cc3c(cc21)OCO3 (stereo not drawn)		> 100				> 100		> 100				> 100		> 100		> 100			> 100	
Cc1ccc(S(=O)(=O)Oc2cc(-c3ccccc3)nc3ccccc23)cc1		9.62		4.49		34.8		5.73		11.9		17		21.3		> 47.3	62		26.5	
CC(=O)Oc1cccc2c(/C=N/NC(N)=S)ncc(C)c12		29.2		18.9		> 100		32.3		23.7		25.3		16.4		> 49.7	22		12.8	

Source: PubChem BioAssay (NCI)
